Results from patent US9771341B2, “Piperazine carbamates and methods of making and using same” (Abide Therapeutics, Inc., priority 2015, dated 2017).
Like-named read-outs stand apart in the source and are kept apart here.

Tests used:
Format in all cases: biochemical
FAAH = target: T1, FAAH (Mus musculus, UniProt O08914); assay: In vitro competitive activity-based protein profiling (mouse), FAAH; conditions: for inhibition at 1 µM: mouse proteome, in vitro; for IC50: mouse brain membrane fraction or cell lysates, 30 min preincubation at 37° C, FP-Rh probe
T1 construct: Proteomes (mouse brain membrane fraction or cell lysates); from tissue; host or cells: mouse brain membrane fraction (or unspecified cell lysates)
T1 sequence (O08914 1-579): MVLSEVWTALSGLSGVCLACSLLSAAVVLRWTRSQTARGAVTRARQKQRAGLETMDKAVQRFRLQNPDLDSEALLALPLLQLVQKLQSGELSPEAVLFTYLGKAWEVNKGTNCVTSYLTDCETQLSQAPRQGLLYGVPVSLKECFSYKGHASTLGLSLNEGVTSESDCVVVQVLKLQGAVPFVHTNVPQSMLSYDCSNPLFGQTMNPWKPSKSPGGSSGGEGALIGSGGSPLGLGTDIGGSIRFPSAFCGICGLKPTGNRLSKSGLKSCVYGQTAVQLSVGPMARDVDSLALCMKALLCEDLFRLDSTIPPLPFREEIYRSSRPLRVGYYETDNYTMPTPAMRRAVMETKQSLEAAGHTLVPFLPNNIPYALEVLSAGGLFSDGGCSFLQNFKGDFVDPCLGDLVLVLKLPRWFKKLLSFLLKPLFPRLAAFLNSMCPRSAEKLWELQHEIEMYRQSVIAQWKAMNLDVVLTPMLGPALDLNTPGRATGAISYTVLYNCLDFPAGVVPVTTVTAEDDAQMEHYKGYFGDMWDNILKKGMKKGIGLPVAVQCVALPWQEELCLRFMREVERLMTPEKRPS
Protocol: (§1) In Vitro Competitive Activity-Based Protein Profiling (Mouse).
Proteomes (mouse brain membrane fraction or cell lysates) (50 μL, 1.0 mg/mL total protein concentration) were preincubated with varying concentrations of inhibitors at 37° C. After 30 min, FP-Rh (1.0 μL, 50 μM in DMSO) was added and the mixture was incubated for another 30 min at 37° C. Reactions were quenched with SDS loading buffer (50 μL-4×) and run on SDS-PAGE. Following gel imaging, serine hydrolase activity was determined by measuring fluorescent intensity of gel bands corresponding to MAGL, ABHD6 and FAAH using ImageJ 1.43u software.

MAGL = target: T2, MAGL (Mus musculus, UniProt O35678); assay: In vitro competitive activity-based protein profiling (mouse), MAGL; conditions: for inhibition at 1 µM: read-out: % Inhibition at 1 μM MAGL; for IC50: mouse brain membrane fraction or cell lysates, 30 min preincubation at 37° C, FP-Rh probe
T2 construct: Proteomes (mouse brain membrane fraction or cell lysates); from tissue; host or cells: mouse brain membrane fraction (or unspecified cell lysates)
T2 sequence (O35678 1-303): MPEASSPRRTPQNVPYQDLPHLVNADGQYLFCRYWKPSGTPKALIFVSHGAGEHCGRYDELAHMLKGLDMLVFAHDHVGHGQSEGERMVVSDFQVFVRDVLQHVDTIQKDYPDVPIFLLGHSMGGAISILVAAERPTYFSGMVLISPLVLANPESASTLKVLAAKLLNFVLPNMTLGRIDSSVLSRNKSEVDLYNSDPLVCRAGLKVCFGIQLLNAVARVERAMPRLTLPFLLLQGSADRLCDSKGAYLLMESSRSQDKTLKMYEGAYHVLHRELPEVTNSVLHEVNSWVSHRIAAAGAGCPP
Protocol: as §1
(§2) Proteomes (mouse brain membrane fraction or cell lysates) (50 μL, 1.0 mg/mL total protein concentration) were preincubated with varying concentrations of inhibitors at 37° C. After 30 min, FP-Rh (1.0 μL, 50 μM in DMSO) was added and the mixture was incubated for another 30 min at 37° C. Reactions were quenched with SDS loading buffer (50 μL-4×) and run on SDS-PAGE.

ABHD6 = target: T3, ABHD6 (Mus musculus, UniProt Q8R2Y0); assay: In vitro competitive activity-based protein profiling (mouse), ABHD6; conditions: for inhibition at 1 µM: read-out: % Inhibition at 1 μM ABHD6; for IC50: mouse brain membrane fraction or cell lysates, 30 min preincubation at 37° C, FP-Rh probe
T3 construct: Proteomes (mouse brain membrane fraction or cell lysates); from tissue; host or cells: mouse brain membrane fraction (or unspecified cell lysates)
T3 sequence (Q8R2Y0 1-336): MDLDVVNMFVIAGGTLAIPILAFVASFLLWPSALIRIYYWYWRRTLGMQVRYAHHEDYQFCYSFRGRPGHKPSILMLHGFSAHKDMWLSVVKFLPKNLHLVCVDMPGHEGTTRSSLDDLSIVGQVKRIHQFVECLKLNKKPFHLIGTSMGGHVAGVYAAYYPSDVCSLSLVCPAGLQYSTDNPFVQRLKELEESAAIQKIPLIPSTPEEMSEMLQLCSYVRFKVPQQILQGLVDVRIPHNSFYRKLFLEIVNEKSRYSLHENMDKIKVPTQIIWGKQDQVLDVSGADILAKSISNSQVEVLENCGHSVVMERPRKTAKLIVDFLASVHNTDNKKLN
Protocol: as §1, §2

| Compound | inhibition at 1 µM (FAAH) [%] | IC50 (FAAH) [nM] | inhibition at 1 µM (MAGL; 1 μM, mouse proteome, in vitro) [%] | IC50 (MAGL) [nM] | inhibition at 1 µM (ABHD6; 1 μM, mouse proteome, in vitro) [%] | IC50 (ABHD6) [nM] | inhibition at 1 µM (MAGL) [%] | inhibition at 1 µM (ABHD6) [%] |
| --- | --- | --- | --- | --- | --- | --- | --- | --- |
| Cc1cc(C)n(C2CN(c3cc(Cl)ccc3CN3CCN(C(=O)OC(C(F)(F)F)C(F)(F)F)CC3)C2)n1 [Example 38, 1,1,1,3,3,3-hexafluoropropan-2-yl 4-(4-chloro-2-(3-(3,5-dimethyl-1H-pyrazol-1-yl)azetidin-1-yl)benzyl)piperazine-1-carboxylate] | < 25 | > 1000 | > 75 | < 100 | < 25 | 100 to 1000 | – | – |
| CS(=O)(=O)N[C@H]1CCN(c2cccc(C(F)(F)F)c2CN2CCN(C(=O)OC(C(F)(F)F)C(F)(F)F)CC2)C1 [Example 48, 1,1,1,3,3,3-hexafluoropropan-2-yl (S)-4-(2-(3-(methylsulfonamido)pyrrolidin-1-yl)-6-(trifluoromethyl)benzyl)piperazine-1-carboxylate] | < 25 | – | 25 to 75 | – | < 25 | – | – | – |
| O=C(OC(C(F)(F)F)C(F)(F)F)N1CCN(Cc2c(N3C4CCC3COC4)cccc2C(F)(F)F)CC1 [Example 49, 1,1,1,3,3,3-hexafluoropropan-2-yl 4-(2-(3-oxa-8-azabicyclo[3.2.1]octan-8-yl)-6-(trifluoromethyl)benzyl)piperazine-1-carboxylate] | < 25 | – | – | – | – | – | 25 to 75 | < 25 |
| O=C(OC(C(F)(F)F)C(F)(F)F)N1CCN(Cc2c(N3CC4CCC(C3)O4)cccc2C(F)(F)F)CC1 [Example 50, 1,1,1,3,3,3-hexafluoropropan-2-yl 4-(2-(8-oxa-3-azabicyclo[3.2.1]octan-3-yl)-6-(trifluoromethyl)benzyl)piperazine-1-carboxylate] | < 25 | – | < 25 | – | < 25 | – | – | – |
| O=C(O)C1CCN(c2cc(Cl)ccc2CN2CCN(C(=O)OC(C(F)(F)F)C(F)(F)F)CC2)CC1 [Example 62, 1-(5-chloro-2-((4-(((1,1,1,3,3,3-hexafluoropropan-2-yl)oxy)carbonyl)piperazin-1-yl)methyl)phenyl)piperidine-4-carboxylic acid] | < 25 | > 1000 | > 75 | 100 to 1000 | < 25 | > 1000 | – | – |
| O=C(O)C1CCN(c2cc(C(F)(F)F)ccc2CN2CCN(C(=O)OC(C(F)(F)F)C(F)(F)F)CC2)CC1 [Example 63, 1-(2-((4-(((1,1,1,3,3,3-hexafluoropropan-2-yl)oxy)carbonyl)piperazin-1-yl)methyl)-5-(trifluoromethyl)phenyl)piperidine-4-carboxylic acid] | < 25 | > 1000 | > 75 | < 100 | > 75 | 100 to 1000 | – | – |
| O=C(OC(C(F)(F)F)C(F)(F)F)N1CCN(Cc2ccc(Cl)cc2N2CCC3(CCCN3C3CC3)CC2)CC1 [Example 66, 1,1,1,3,3,3-hexafluoropropan-2-yl 4-(4-chloro-2-(1-cyclopropyl-1,8-diazaspiro[4.5]decan-8-yl)benzyl)piperazine-1-carboxylate] | < 25 | > 1000 | > 75 | 100 to 1000 | 25 to 75 | > 1000 | – | – |
| O=C(OC(C(F)(F)F)C(F)(F)F)N1CCN(Cc2ccc(C(F)(F)F)cc2N2CCC3(CCCN3C3CC3)CC2)CC1 [Example 67, 1,1,1,3,3,3-hexafluoropropan-2-yl 4-(2-(1-cyclopropyl-1,8-diazaspiro[4.5]decan-8-yl)-4-(trifluoromethyl)benzyl)piperazine-1-carboxylate] | < 25 | > 1000 | > 75 | 100 to 1000 | < 25 | > 1000 | – | – |
| O=C(OC(C(F)(F)F)C(F)(F)F)N1CCN(Cc2ccc(C(F)(F)F)cc2N2CCC(C(=O)N3CCCC3)CC2)CC1 [Example 68, 1,1,1,3,3,3-hexafluoropropan-2-yl 4-(2-(4-(pyrrolidine-1-carbonyl)piperidin-1-yl)-4-(trifluoromethyl)benzyl)piperazine-1-carboxylate] | < 25 | > 1000 | > 75 | 100 to 1000 | < 25 | > 1000 | – | – |

The next lines start with results.

| inhibition at 1 µM (FAAH) [%] | IC50 (FAAH) [nM] | inhibition at 1 µM (MAGL; 1 μM, mouse proteome, in vitro) [%] | IC50 (MAGL) [nM] | inhibition at 1 µM (ABHD6; 1 μM, mouse proteome, in vitro) [%] | IC50 (ABHD6) [nM] | Compound | inhibition at 1 µM (MAGL) [%] | inhibition at 1 µM (ABHD6) [%] |
| --- | --- | --- | --- | --- | --- | --- | --- | --- |
| 25 to 75 | > 1000 | > 75 | < 100 | 25 to 75 | > 1000 | O=C(OC(C(F)(F)F)C(F)(F)F)N1CCN(Cc2ccc(Cl)cc2N2CC[C@H](N3CCCS3(=O)=O)C2)CC1 [Example 46, 1,1,1,3,3,3-hexafluoropropan-2-yl (S)-4-(4-chloro-2-(3-(1,1-dioxidoisothiazolidin-2-yl)pyrrolidin-1-yl)benzyl)piperazine-1-carboxylate] | – | – |
| < 25 | – | > 75 | – | < 25 | – | CS(=O)(=O)N[C@@H]1CCN(c2cccc(C(F)(F)F)c2CN2CCN(C(=O)OC(C(F)(F)F)C(F)(F)F)CC2)C1 [Example 47, 1,1,1,3,3,3-hexafluoropropan-2-yl (R)-4-(2-(3-(methylsulfonamido)pyrrolidin-1-yl)-6-(trifluoromethyl)benzyl)piperazine-1-carboxylate] | – | – |
| < 25 | > 1000 | > 75 | < 100 | > 75 | 100 to 1000 | Cc1c(CN2CCN(C(=O)OC(C(F)(F)F)C(F)(F)F)CC2)cccc1N1CCC(NS(C)(=O)=O)CC1 [Example 52, 1,1,1,3,3,3-hexafluoropropan-2-yl 4-(2-methyl-3-(4-(methylsulfonamido)piperidin-1-yl)benzyl)piperazine-1-carboxylate] | – | – |
| < 25 | > 1000 | > 75 | 100 to 1000 | < 25 | > 1000 | O=C(OC(C(F)(F)F)C(F)(F)F)N1CCN(Cc2ccc(Cl)cc2N2CC3CN(C4CC4)CC3C2)CC1 (stereo not drawn) [Example 64, 1,1,1,3,3,3-hexafluoropropan-2-yl 4-(4-chloro-2-(5-cyclopropylhexahydropyrrolo[3,4-c]pyrrol-2(1H)-yl)benzyl)piperazine-1-carboxylate] | – | – |
| < 25 | > 1000 | > 75 | < 100 | > 75 | 100 to 1000 | CCOC(=O)C1CCCN1c1cc(C(F)(F)F)ccc1CN1CCN(C(=O)OC(C(F)(F)F)C(F)(F)F)CC1 (stereo not drawn) [Example 70, 1,1,1,3,3,3-hexafluoropropan-2-yl 4-(2-(2-(ethoxycarbonyl)pyrrolidin-1-yl)-4-(trifluoromethyl)benzyl)piperazine-1-carboxylate] | – | – |
| < 25 | > 1000 | > 75 | < 100 | > 75 | 100 to 1000 | O=C(O)C1CCN(c2cc(C(F)(F)F)ccc2CN2CCN(C(=O)OC(C(F)(F)F)C(F)(F)F)CC2)C1 (stereo not drawn) [Example 72, 1-(2-((4-(((1,1,1,3,3,3-hexafluoropropan-2-yl)oxy)carbonyl)piperazin-1-yl)methyl)-5-(trifluoromethyl)phenyl)pyrrolidine-3-carboxylic acid] | – | – |
